According to publication PMC12006963, “Application of Deuterium in an M1 Positive Allosteric Modulator Back-Up Program: The Discovery of VU6045422” (ACS Chemical Neuroscience, 2025):

Experiments:
[1] = Predicted hepatic clearance, hepatic microsomes (human); assay type: in vitro ADME
Procedure: After a 5 min preincubation, the reaction was initiated by the addition of NADPH (1 mM). At selected time intervals (0, 3, 7, 15, 25, and 45 min), aliquots were taken and subsequently placed into a 96-well plate containing cold acetonitrile with internal standard (50 ng/mL carbamazepine). Plates were then centrifuged at 3000 rcf (4 °C) for 10 min, and the supernatant was transferred to a separate 96-well plate and diluted 1:1 with water for LC/MS/MS analysis. The in vitro half-life ( 1/2, min, Eq. 1), intrinsic clearance (CLint, mL/min/kg, Eq. 2), and subsequent predicted hepatic clearance (CLhep, mL/min/kg, Eq. 3) was determined employing the […]
where k represents the slope from linear regression analysis of the natural log percent remaining of a test compound as a function of incubation time […]
(2) CLint = in vitroT1/2 x mg microsomes x gram liver x kg body wt ascale-up factors: of 20 (human) or 45 (rat) […]
where Qh (hepatic blood flow, mL/min/kg) is 21 (human) or 70 (rat).
LC/MS/MS Bioanalysis of Samples from Plasma Protein Binding and Intrinsic Clearance […]
Samples were analyzed on a Thermo Electron TSQ Quantum Ultra triple quad mass spectrometer (San Jose, CA) via electrospray ionization (ESI) with two Themo Electron Accella pumps (San Jose, CA), and a Leap Technologies CTC PAL autosampler (Carrboro, NC). Analytes were separated by gradient elution on a dual column system with two Thermo Hypersil Gold (2.1 x 30 mm, 1.9 µm) columns (San Jose, CA) thermostated at 40 °C. HPLC mobile phase A was 0.1% formic acid in water and mobile phase B was 0.1% formic acid in acetonitrile. The gradient started […]
for 0.2 min; returned to 10% B in 0.1 min. The total run time was 1.3 min and the HPLC flow rate was 0.8 mL/min. While pump 1 ran the gradient method, pump 2 equilibrated the alternate column isocratically at 10% B. Compound optimization, data collection, and processing was performed using Thermo Electron's QuickQuan software (v2.3) and Xcalibur (v2.0.7 SP1).
In vivo DMPK experimental:
Determination of brain to plasma ratio: […]

[2] = Plasma protein binding, equilibrium dialysis (human); assay type: in vitro ADME; details: pH 7.4, read-out: fu,plasma
Procedure: (§1) page 5: Drug Metabolism Methods: In vitro Plasma protein binding and Brain homogenate binding: Determination of fraction unbound (f u) in plasma was conducted in vitro via equilibrium dialysis using HTDialysis (HTD) membrane plates. The top half of the plate was filled with 100 uL of Dubelco’s Phosphate Buffered Saline, pH 7.4 (DPBS). Compounds were diluted into plasma from each species (5 µM final concentration), which was aliquoted in triplicate to the ‘bottom half’ of the prepared HTD plate wells. The HTD plate was sealed and incubated for 6 hours at 37 °C. Following incubation, each well (both top and bottom halves) were transferred (20 µL) to the corresponding wells of a 96- shallow-well (V-bottom) plate. The daughter plates were then matrix-matched (DPBS side wells received equal volume of plasma, and plasma side wells received equal volume of DPBS), and extraction solution (120 µL; acetonitrile containing 50 nM carbamazepine as IS) was added to all wells of both daughter plates to precipitate protein and extract test article. The plates were then sealed and centrifuged (3500 rcf) for 10 minutes at ambient temperature. Supernatant (60 µL) from each well of the daughter plates was then transferred to the corresponding wells of new daughter plates (96-shallow-well, V bottom) containing water (Milli-Q, 60 µL/well), and the plates were sealed in preparation for LC-MS/MS analysis (see LC-MS/MS analysis method below). The unbound fraction (f u) was calculated following the equation below, and mean values for each species were calculated from 3 replicates. […] Fraction unbound for both plasma and brain samples was determined using Equation 4. f = Concbuffer u Concplasma Equation 4 Determination of fraction unbound in plasma. […]

[3] = Plasma protein binding, equilibrium dialysis (rat); assay type: in vitro ADME; details: pH 7.4, read-out: fu,plasma
Procedure: as §1

[4] = Plasma protein binding, equilibrium dialysis (dog); assay type: in vitro ADME; details: pH 7.4, read-out: fu,plasma
Procedure: as §1

[5] = Hepatocyte metabolite identification (monkey); assay type: in vitro ADME; details: monkey hepatocytes, 4 h incubation
Procedure: (§2) Prior to full characterization of deuterated analogues 3 and 5, they were incubated in rat, dog, monkey, and human hepatocytes, along with 1, to determine the amount of parent remaining, as well as the degree of undesired oxidative metabolites 2, 4, and 6 (Figure 2). […] For the gem-dideutero congener 3, metabolic stability was improved in vitro. […] Thus, in hepatocytes in vitro, the kinetic isotope effect engendered greater metabolic stability of the labile hot spot on the lactam. It remained to be seen if this effect would translate in vivo, but we first had to assess the impact of the deuterated analogues on molecular pharmacology, in vitro DMPK, standard low-dose in vivo DMPK and, if warranted, in vivo efficacy in a rat novel object recognition (NOR) behavioral assay.

[6] = Hepatocyte metabolite identification (human); assay type: in vitro ADME; details: human hepatocytes, 4 h incubation
Procedure: as §2

[7] = In vivo IV/PO pharmacokinetics, rat; details: rat (SD), dose iv/po mg/kg: 1 1/3, 3 1/10, 5 1/10; for clearance / Vd / half-life: Sprague-Dawley, plasma, 1 mg/kg; for clearance: read-out: CLp; for Vd: read-out: Vss; for half-life: read-out: elimination t1/2 (converted)

Row | Structure (SMILES) | Predicted CLhep [1] | fraction unbound at 6 h, 5 µM [2] | fraction unbound at 6 h, 5 µM [3] | fraction unbound at 6 h, 5 µM [4] | % Total Peak Area, parent remaining [5] | % Total Peak Area, parent remaining [6] | clearance [7] | Vd [7] | half-life [7] | F (%) po [7]
1 | Cn1cc2c(-c3cc(F)c(CN4Cc5ncccc5C4=O)c(F)c3)cccc2n1 [compound 1] | 1.3 mL/min/kg | 0.034 | 0.028 | 0.076 | 25.8% | 65.1% | 3 mL/min/kg | 0.67 L/kg | 3 h | 93%
2 | [2H]C1([2H])c2ncccc2C(=O)N1Cc1c(F)cc(-c2cccc3nn(C)cc23)cc1F [compound 3] | 10.6 mL/min/kg | 0.051 | 0.034 | 0.082 | 58.5% | 82.6% | 5.5 mL/min/kg | 1.4 L/kg | 3 h | 100%
3 | [2H]C1([2H])c2ncccc2C(=O)N1Cc1c(F)cc(-c2cccc3nn(C([2H])([2H])[2H])cc23)cc1F [compound 5] | 8.0 mL/min/kg | 0.036 | 0.026 | 0.119 | 60.5% | 92.3% | 4.8 mL/min/kg | 1.1 L/kg | 3.6 h | 100%
